# From PMC6823370, “A novel nucleoside rescue metabolic pathway may be responsible for therapeutic effect of orally administered cordycepin” (Scientific Reports, 2019)
# Tests used:
# Assay type in all cases: in vitro ADME
# [1] = Plasma stability of cordycepin in human plasma; settings: read-out: ex vivo stability half-life (t1/2) in plasma
# Method: Stability of cordycepin in plasma was tested using human and rat plasma by following a previously reported method with minor modifications. Cordycepin was spiked into the plasma at 10 µM and the samples were incubated in a shaking incubator (Thermo Scientific MaxQ4000, Waltham, MA, USA) at 37 °C and shaken at 250 rpm. Samples (100 µL) were withdrawn at predetermined time points. […] The experiments were performed in triplicates.
# Samples from studies of plasma stability, protein binding, biorelevant solubility and liver microsomal stability were subjected to liquid-liquid extraction and HPLC-UV analysis. To 100 µL of sample, internal standard (2′-deoxyadenosine) was spiked at 10 µg/mL and 300 µL of 0.1 M NaOH was added. Extraction solvent (3 mL) of ethyl acetate-isopropyl alcohol (85:15, v/v) was added and vortex-mixed for 10 min. Samples were then centrifuged at 1160 g for 5 min and the supernatant was transferred and dried under N2 gas. Dried samples were reconstituted with 100 uL of deionised distilled water (DDW) and 40 µL was injected into the HPLC-UV. The HPLC-UV setup was adopted from a validated method[22] with addition of a gradient scheme to elute the impurities from samples. Waters Alliance 2695 module with Waters 996 PDA detector was used for the HPLC-UV system with Capcell Pak C18 3 µm, 4.6 × 150 mm as the stationary phase. […]
# [2] = Liver microsomal stability, human liver microsomes; settings: human liver microsome, pentostatin −; for CLint scaled at 1 µM: human, liver microsomes
# Method: Human and rat liver microsomes were used in the experiment following previously reported methods[49],[50]. Microsomes were used at 0.5 mg protein/mL and cordycepin was tested at 1 µM. […] The reaction mixture was incubated in the shaking incubator at 37 °C for 30 min with sampling every 10 min. The results of intrinsic clearance and the fraction that escapes hepatic metabolism (by both well-stirred and parallel-tube models) were calculated by previously reported equations and physiological parameters[50]–[52]. The experiments were performed in triplicates.
# Samples from studies of plasma stability, protein binding, biorelevant solubility and liver microsomal stability were subjected to liquid-liquid extraction and HPLC-UV analysis. To 100 µL of sample, internal standard (2′-deoxyadenosine) was spiked at 10 µg/mL and 300 µL of 0.1 M NaOH was added. Extraction solvent (3 mL) of ethyl acetate-isopropyl alcohol (85:15, v/v) was added and vortex-mixed for 10 min. Samples were then centrifuged at 1160 g for 5 min and the supernatant was transferred and dried under N2 gas. Dried samples were reconstituted with 100 uL of deionised distilled water (DDW) and 40 µL was injected into the HPLC-UV. The HPLC-UV setup was adopted from a validated method[22] with addition of a gradient scheme to elute the impurities from samples. Waters Alliance 2695 module with Waters 996 PDA detector was used for the HPLC-UV system with Capcell Pak C18 3 µm, 4.6 × 150 mm as the stationary phase. Mobile phase was a mixture of acetonitrile (A) and DDW (B) at flow rate 0.8 mL/min with a gradient scheme of the following: 0–9 min, B 94%; 9–14 min, B decreased to 20%; 14–24 min, B 20%; 24–26 min, B increased to 94%; and 26–35 min, B 94%. Calibration curves were constructed at a range of 10 – 20000 ng/mL and chromatograms were obtained at 259 nm of wavelength.
# [3] = Sample storage stability of cordycepin in rat plasma containing pentostatin; settings: for Autosampler (24 h, 4°C) sample stability: processed samples; for Freeze-thaw (3 cycles) sample stability / Long-term (4 weeks, -80°C) sample stability / Long-term (5 days, -80°C) sample stability / Short-term (4 h, RT) sample stability: rat plasma with 10 µM pentostatin
# Method: Stability of cordycepin was tested in different conditions. […] Samples withdrawn at pre-determined time points were prepared and analysed for stability and degradation rate of cordycepin in rat plasma.
# Sample storage stability studies were conducted with QC samples (LQC, MQC and HQC; 5 replicates for each condition). […] Short-term (benchtop) stability was tested after storing spiked QC samples for 4 h at room temperature. Long-term stability was tested in storage condition of -80 °C for 5 days and 4 weeks. Freeze-thaw cycle stability was tested after undergoing three cycles between -80 °C and room temperature. Autosampler stability was tested by analysing processed QC samples after storage at 4 °C for 24 h. All stability samples were quantified with freshly prepared calibration curve samples. Stock solution stability was tested by analysing five different aliquots of 1000 ng/mL working standard solution stored for 6 h at room temperature and comparing to a fresh working standard solution.
smiles,measurement,setting,value
"Nc1ncnc2c1ncn2[C@@H]1O[C@H](CO)C[C@H]1O [cordycepin, 3′-deoxyadenosine]",half-life at 10 µM,[1],25.8 ± 4 min
same,"Fh, parallel-tube model",[2]; NADPH +,0.0 ± 0.0%
same,"Fh, well-stirred model",[2]; NADPH +,10.3 ± 0.7%
same,"Fh, parallel-tube model",[2]; NADPH −,0.0 ± 0.0%
same,"Fh, well-stirred model",[2]; NADPH −,10.4 ± 0.3%
same,CLint scaled at 1 µM,[2]; NADPH +,181 ± 13.9 mL/min/kg
same,CLint scaled at 1 µM,[2]; NADPH −,179 ± 5.3 mL/min/kg
same,"Autosampler (24 h, 4°C) sample stability",[3]; HQC 4000 ng/mL,100.4 ± 3.4
same,Freeze-thaw (3 cycles) sample stability,[3]; HQC 4000 ng/mL,106.7 ± 7.4
same,"Long-term (4 weeks, -80°C) sample stability",[3]; HQC 4000 ng/mL,103.8 ± 1.5
same,"Long-term (5 days, -80°C) sample stability",[3]; HQC 4000 ng/mL,98.6 ± 5.4
same,"Short-term (4 h, RT) sample stability",[3]; HQC 4000 ng/mL,107.4 ± 2.9
same,"Autosampler (24 h, 4°C) sample stability",[3]; LQC 5 ng/mL,113.8 ± 8.9
same,Freeze-thaw (3 cycles) sample stability,[3]; LQC 5 ng/mL,104.5 ± 7.4
same,"Long-term (4 weeks, -80°C) sample stability",[3]; LQC 5 ng/mL,93.5 ± 7.0
same,"Long-term (5 days, -80°C) sample stability",[3]; LQC 5 ng/mL,107.4 ± 3.8
same,"Short-term (4 h, RT) sample stability",[3]; LQC 5 ng/mL,104.7 ± 9.2
same,"Autosampler (24 h, 4°C) sample stability",[3]; MQC 80 ng/mL,91.6 ± 3.6
same,Freeze-thaw (3 cycles) sample stability,[3]; MQC 80 ng/mL,113.1 ± 13.1
same,"Long-term (4 weeks, -80°C) sample stability",[3]; MQC 80 ng/mL,113.5 ± 3.3
same,"Long-term (5 days, -80°C) sample stability",[3]; MQC 80 ng/mL,110.0 ± 3.3
same,"Short-term (4 h, RT) sample stability",[3]; MQC 80 ng/mL,98.2 ± 7.3
